Read-outs that look alike come from different tables or passages of the source. Marks after values point to notes of the source that are not given here. Numbered stars: 1 amine (or outer) side, 2 acyl side, 3 side chain; on linkers, the order of the positions; unused ones are H or OH. Bridge positions count the residues as written; N and C are the ends. Square brackets hold non-standard residues; d marks the D form. Peptide text beside a SMILES is read from it. I, II: the chains in the order shown. * marks the point of attachment. X3 = COc1cc2cc(c1Cl)N(C)C(=O)C[C@H](OC(=O)[C@H](C)N(C)C(=O)CCSSCCCC(=O)*)[C@]1(C)O[C@H]1[C@H](C)[C@@H]1C[C@@](O)(NC(=O)O1)[C@H](OC)/C=C/C=C(\C)C2; Dolaproine = CO[C@@H]([C@@H]1CCCN1)[C@@H](C)C(=O)O; Dil = CC[C@H](C)[C@H](NC)[C@@H](CC(=O)O)OC; Phe(4-Br) = N[C@@H](Cc1ccc(Br)cc1)C(=O)O; 1Nal = N[C@@H](Cc1cccc2ccccc12)C(=O)O; TBMB = c1c(C[*:1])cc(C[*:3])cc1C[*:2]; PABC = O=C(OCc1ccc(N[*:1])cc1)[*:2]; Glutaryl = O=C(CCCC(=O)[*:2])[*:1]; X4 = C[C@@H](N*)[C@@H](O)c1ccccc1; Cit = NC(=O)NCCC[C@H](N)C(=O)O; Tle = CC(C)(C)[C@H](N)C(=O)O; NMeV = CN[C@H](C(=O)O)C(C)C; Sar = CNCC(=O)O
What was measured:
[1] = Mouse pharmacokinetics, single intravenous dose; format: in vivo; settings: male CD1 mice, single intravenous 5.925 mg/kg, mean
Experimental: Mouse pharmacokinetics were acquired using bicyclic peptide 17-69-04-N004, which was dosed to one group of 12 male CD1 mice as a single intravenous, 5.925 mg/kg doses as a 5 mL/kg bolus of a 1.19 mg/mL solution. […] Blood samples were taken from two animals per time-point, via cardiac puncture under terminal anaesthesia, at 0.08, 0.5, 1, 2 and 4 hours post-dose, and transferred to EDTA tubes for plasma generation. Plasma samples were immediately frozen at −20 C. For analysis, samples were thawed rapidly and 50 μL aliquots were treated with 3 volumes of extraction solvent (2:9:9 mixture of 10 mM ammonium bicarbonate, pH 8, acetonitrile and methanol, containing an analytical internal standard). Precipitated proteins were removed by centrifugation and the supernatant was analysed by LC-MS/MS. Quantification of the samples was by reference to a calibration line prepared in control mouse plasma. Pharmacokinetic parameters were determined by non-compartmental analysis using the software package PK Solutions 2.0 from Summit Research Services.
Cmax: Maximum measured concentration;
Tmax: Time at which maximum concentration was measured;
AUC 0-t: Area under the plasma drug concentration/time curve from 0 minutes to last quantifiable data point; and
AUC 0-∞: Area under the plasma drug concentration/time curve from 0 minutes extrapolated beyond the final data point based on the terminal half-life.

[2] = Plasma stability, quantitative LC-MS (Method #2); format: in vitro ADME, mouse; settings: ex vivo mouse plasma at 37° C., Method #2 (FIG. 1, FIG. 3A); read-out: half-life of the peptide in mouse plasma (converted)
Experimental: To obtain plasma stability of bicyclic peptides quantitatively, peptide stock solutions (200 μM in DMSO) were mixed with plasma (human or mouse), such that final concentrations were 10 μM. 40 μL samples were taken periodically up to 8 hrs and frozen at −80° C. Prior to LC-MS analysis, samples were defrosted, and mixed with 3 volumes (here, 120 μL) of 1:1 acetonitrile/MeOH water. The milky suspensions were centrifuged for 30 min at 13000 rpm, and peptide-containing supernatants were quantitated for doubly/triply charged species and MS/MS fragments thereof using a Waters Xevo TQ-D instrument, while using a plasma extracted standard curve of the same peptides as a reference. The half-life of degradation in plasma was used to assess the comparative stability of the molecules.

[3] = Plasma stability, quantitative LC-MS (Method #2); format: in vitro ADME, human; settings: human, human plasma, 37° C.; sentence prints mouse plasma; read-out: half-life of the peptide in plasma (FIG. 3B, human plasma stability) (converted)
Experimental: […] […] Prior to LC-MS analysis, samples were defrosted, and mixed with 3 volumes (here, 120 μL) of 1:1 acetonitrile/MeOH water. The milky suspensions were centrifuged for 30 min at 13000 rpm, and peptide-containing supernatants were quantitated for doubly/triply charged species and MS/MS fragments thereof using a Waters Xevo TQ-D instrument, while using a plasma extracted standard curve of the same peptides as a reference. The half-life of degradation in plasma was used to assess the comparative stability of the molecules.

[4] = test system: HT-1080 xenograft tumours; experiment: Efficacy in HT-1080 xenograft mice; format: in vivo, mouse; settings: HT1080 xenograft
Experimental: Balb/c nude mice bearing subcutaneous HT-1080 xenograft tumours were treated with BDCs or vehicle (PBS). BDCs were dosed 3 times weekly for 2 weeks, dosing initiated when tumours measured approx. 150-200 mm^3. Mice were monitored, and measurements of tumour volume and body weight recorded 3 times a week.

[5] = test system: human lung squamous cell carcinoma line EBC-1; experiment: Efficacy in EBC-1 xenograft mice; format: in vivo, mouse; settings: mouse bearing EBC-1 tumours; ± 95% confidence limit
Experimental: In vivo efficacy of BT17BDC-17, BT17BDC-18, BT17BDC-19 and BT17BDC-20 All BDCs containing the stabilised bicycle core sequence were tested for their efficacies in in vivo mouse xenograft models, using the human lung squamous cell carcinoma line EBC-1.
The area under the curve (AUC) of tumour volume over time and BDC was taken and plotted against the corresponding dose group (FIG. 13).

CC[C@H](C)[C@@H]1NC(=O)[C@H](CC(=O)O)NC(=O)[C@H](Cc2ccc(O)cc2)NC(=O)[C@H](Cc2ccccc2)NC(=O)[C@H](CC(=O)O)NC(=O)[C@H](CCC(=O)O)NC(=O)[C@@H]2CSCc3cc(cc(c3)CSC[C@H](NC(C)=O)C(=O)N[C@@H](Cc3ccc(O)cc3)C(=O)N[C@@H](CC(N)=O)C(=O)N[C@@H](CCC(=O)O)C(=O)N[C@@H](Cc3ccccc3)C(=O)NCC(=O)N2)CSC[C@@H](C(N)=O)NC1=O [17-69-07-N004, Ac-(17-69-07) (wildtype)]
Clearance based on AUC 0-∞ [1]: 20.7 mL/min/kg | Volume of Distribution based on AUC 0-∞ [1]: 0.4 L/kg

C[C@H](NC(=O)CN(C)C(=O)CN(C)C(=O)CN(C)C(=O)CN(C)C(=O)CN(C)C(=O)CN(C)C(=O)CN(C)C(=O)CN(C)C(=O)CN(C)C(=O)CN(C)C(=O)CN)C(=O)N[C@H]1CSCc2cc3cc(c2)CSC[C@H](NC(=O)[C@@H](C)NC(=O)[C@H](Cc2cccc4ccccc24)NC(=O)[C@H](CCC(=O)O)NC(=O)[C@H](CC(N)=O)NC(=O)[C@@H](C)NC1=O)C(=O)N[C@@H](CCC(=O)O)C(=O)N[C@@H](CC(=O)O)C(=O)N[C@@H](Cc1ccccc1)C(=O)N[C@@H](Cc1ccc(Br)cc1)C(=O)N[C@@H](CC(=O)O)C(=O)N[C@@H](C(C)(C)C)C(=O)N[C@H](C(N)=O)CSC3 [17-69-07-N244, G-Sar10-A-(17-69-07) D-Ala1 1Nal4 D-Ala5 4BrPhe9 tBuGly11] (H-G[Sar][Sar][Sar][Sar][Sar][Sar][Sar][Sar][Sar][Sar]AC[dA]NE[1Nal][dA]CEDF[Phe(4-Br)]D[Tle]C-NH2; linker 13-19-26 via TBMB; C-terminus assumed)
half-life at 10 μM [2]: > 20 h | half-life at 10 μM [3]: > 20 h

C[C@H](NC(=O)CN(C)C(=O)CN(C)C(=O)CN(C)C(=O)CN(C)C(=O)CN(C)C(=O)CN(C)C(=O)CN(C)C(=O)CN(C)C(=O)CN(C)C(=O)CN(C)C(=O)CN)C(=O)N[C@H]1CSCc2cc3cc(c2)CSC[C@H](NC(=O)[C@@H](C)NC(=O)[C@H](Cc2cccc4ccccc24)NC(=O)[C@H](CCC(=O)O)NC(=O)[C@H](CC(N)=O)NC(=O)[C@@H](C)NC1=O)C(=O)N[C@@H](CCC(=O)O)C(=O)N[C@@H](CC(=O)O)C(=O)N[C@@H](Cc1ccccc1)C(=O)N[C@@H](Cc1ccc(O)cc1)C(=O)N[C@@H](CC(=O)O)C(=O)N[C@@H](C(C)(C)C)C(=O)N[C@H](C(N)=O)CSC3 [17-69-07-N231, G-Sar10-A-(17-69-07) D-Ala1 1Nal4 D-Ala5 tBuGly11] (H-G[Sar][Sar][Sar][Sar][Sar][Sar][Sar][Sar][Sar][Sar]AC[dA]NE[1Nal][dA]CEDFYD[Tle]C-NH2; linker 13-19-26 via TBMB; C-terminus assumed)
half-life at 10 μM [2]: > 20 h | half-life at 10 μM [3]: > 20 h

CC[C@H](C)[C@@H]1NC(=O)[C@H](CC(=O)O)NC(=O)[C@H](Cc2ccc(O)cc2)NC(=O)[C@H](Cc2ccccc2)NC(=O)[C@H](CC(=O)O)NC(=O)[C@H](CCC(=O)O)NC(=O)[C@@H]2CSCc3cc(cc(c3)CSC[C@H](NC(=O)[C@H](C)NC(=O)CN(C)C(=O)CN(C)C(=O)CN(C)C(=O)CN(C)C(=O)CN(C)C(=O)CN(C)C(=O)CN(C)C(=O)CN(C)C(=O)CN(C)C(=O)CN(C)C(=O)CNC(=O)CCCSSCCC(=O)N(C)[C@@H](C)C(=O)O[C@H]3CC(=O)N(C)c4cc(cc(OC)c4Cl)C/C(C)=C/C=C/[C@@H](OC)[C@@]4(O)C[C@H](OC(=O)N4)[C@@H](C)[C@@H]4O[C@@]34C)C(=O)N[C@@H](Cc3ccc(O)cc3)C(=O)N[C@@H](CC(N)=O)C(=O)N[C@@H](CCC(=O)O)C(=O)N[C@@H](Cc3ccccc3)C(=O)NCC(=O)N2)CSC[C@@H](C(N)=O)NC1=O [BT17BDC-9] (X3-G[Sar][Sar][Sar][Sar][Sar][Sar][Sar][Sar][Sar][Sar]ACYNEFGCEDFYDIC-NH2; linker 13-19-26 via TBMB)
weight of the animals during treatment [4]: largely stable | reduction in tumour volume compared to vehicle control ([4]; after 9 days post injection): significant reduction in tumour volume | ED50, effective dose to achieve 50% tumour AUC reduction [5]: 2.1 ± 1.1^b mg/kg

CC[C@H](C)[C@@H]([C@@H](CC(=O)N1CCC[C@H]1[C@H](OC)[C@@H](C)C(=O)N[C@H](C)[C@@H](O)c1ccccc1)OC)N(C)C(=O)[C@@H](NC(=O)[C@H](C(C)C)N(C)C(=O)OCc1ccc(NC(=O)[C@H](CCCNC(N)=O)NC(=O)[C@@H](NC(=O)CCCC(=O)NCC(=O)N(C)CC(=O)N(C)CC(=O)N(C)CC(=O)N(C)CC(=O)N(C)CC(=O)N(C)CC(=O)N(C)CC(=O)N(C)CC(=O)N(C)CC(=O)N(C)CC(=O)N[C@@H](C)C(=O)N[C@H]2CSCc3cc4cc(c3)CSC[C@H](NC(=O)CNC(=O)[C@H](Cc3ccccc3)NC(=O)[C@H](CCC(=O)O)NC(=O)[C@H](CC(N)=O)NC(=O)[C@H](Cc3ccc(O)cc3)NC2=O)C(=O)N[C@@H](CCC(=O)O)C(=O)N[C@@H](CC(=O)O)C(=O)N[C@@H](Cc2ccccc2)C(=O)N[C@@H](Cc2ccc(O)cc2)C(=O)N[C@@H](CC(=O)O)C(=O)N[C@@H]([C@@H](C)CC)C(=O)N[C@H](C(N)=O)CSC4)C(C)C)cc1)C(C)C [BT17BDC-1] (I: G[Sar][Sar][Sar][Sar][Sar][Sar][Sar][Sar][Sar][Sar]ACYNEFGCEDFYDIC-NH2 / II: V[Cit][PABC][NMeV]V[Dil][Dolaproine]-X4; linker I:13-I:19-I:26 via TBMB; linker I:N-II:N via Glutaryl)
weight of the animals during treatment [4]: largely stable

From patent publication US11672868B2, “Bicyclic peptide ligands specific for MT1-MMP” (priority 2014, dated 2023)
